Results from patent publication EP1143981B1, “USE OF N-GLYCOLNEURAMINIC ACID AND ITS DERIVATIVES FOR THE MANUFACTURE OF A MEDICAMENT FOR THE TREATMENT OF HIV INFECTIONS” (Glukor, Inc., priority 1998, dated 2000).

Assays:
PBMCs = type: cell-based; conditions: human
Method: Fresh human PBMCs were isolated from voluntary Red Cross donors, seronegative for HIV and HBV. Leukophoresed blood was diluted 1:1 with Dulbecco's PBS, layered over 14 mL of Ficoll-Hypaque density gradient in a 50mL centrifuge and then centrifuged for 30 minutes at 600 x g. Banded PBMCs were gently aspirated from the resulting interface and subsequently washed twice with PBS by low speed centrifugation. […] PBMCs were maintained in this medium at a concentration of 1-2 x 10^6 cells/mL with bi-weekly medium changes until used in the assay. […]
(§1) Tetrazolium dye staining of screening plates: After 6 days of incubation (37°C with 5% CO2), the test plates were analyzed by staining with the tetrazolium dye XTT (2,3-b (2-methoxy-4-nitro-5-sulfophenyl)-2H-tetrazolium -5-carboxanilide). XTT-tetrazolium is metabolized by mitochondrial enzymes of metabolically active cells to a soluble formazan product, allowing the rapid quantitative analysis of the inhibition of HIV-induced cell killing by anti-HIV compounds. […] Plates were sealed with adhesive plate sealers and inverted several times to mix the soluble formazan product and the plate was read spectrophotometrically at 450nm with a Molecular Devices Vmax plate reader. Indices such as %CPE Reduction (cytopathic effects), %Cell Viability, IC25, IC50, IC95, TC25, TC50, and TC95 and other indices were calculated. […]

HIV-1RF = assay: CEM-SS cell-based anti-HIV assay (XTT); conditions: 3.2µM to 1 mM; CEM-SS cells
Method: (§2) Cell Preparation: Prior to infection, CEM-SS cells were grown in complete tissue culture medium (RPMI 1640 medium with 10% heat-inactivated fetal bovine serum, 2mM L-glutamine, 100 U/mL penicillin, 100 µg/mL streptomycin, 10 µg/mL gentamycin) and transferred to T-150 flasks. On the day preceding the assay, the cells were split 1:2 to assure the cells would be in an exponential growth phase at time of infection. On the day of assay, the cells were washed twice with tissue culture medium and resuspended in fresh tissue culture medium. Total cell and viability counting were performed using a hemacytometer and trypan blue dye exclusion. Cell viability was greater than 95% for the cells to be utilized in the assay. […]
Virus Preparation: Pre-tittered aliquots of HIV-1ROJO and HIV-1RF were removed from the freezer (-80°C) and thawed to room temperature in a biological safety cabinet. The virus was resuspended and diluted into tissue culture medium such that the amount of virus added to each well in a volume of 50 µL will be the amount determined to give complete cell killing at 6 days post-infection.
Tetrazolium dye staining of screening plates: After 6 days of incubation (37°C with 5% CO2), the test plates were analyzed by staining with the tetrazolium dye XTT (2,3-b (2-methoxy-4-nitro-5-sulfophenyl)-2H-tetrazolium -5-carboxanilide). […]

HIV-1IIIB = assay: CEM-SS cell-based anti-HIV assay (XTT); conditions: 3.2µM to 1 mM; CEM-SS cells
in vitro = type: cell-based; conditions: human, cem-ss cells
Method: as §2
as §1, with “reader.” for “reader. Indices such as %CPE Reduction (cytopathic effects), %Cell Viability, IC25, IC50, IC95, TC25, TC50, and TC95 and other indices were calculated.”

X4 strain LAI/IIIB = assay: RT activity in infected PBMCs over 20 days post-infection; type: cell-based
Method: Reverse Transcriptase Activity Assay: A microtiter based reverse transcriptase (RT) reaction was utilized as described by Buckheit et al., (1991), AIDS Research and Human Retroviruses, 7:295-302. Tritiated thymidine triphosphate (^3H-TTP) was suspended in distilled H2O at 5 Ci/mL. Poly rA and oligo dT were prepared as a stock solution which was kept at -20°C. RT reaction buffer was prepared fresh on a daily basis and contained 125 µL 1M EGTA, 125 µL dH2O, 110 µL 10% SDS, 50 µL 1M Tris (pH 7.4), 50 µL 1M DTT, and 40 µL 1M MgCl2. These three solutions were mixed together in a ratio of 2 parts ^3H-TTP, 1 part poly rA:oligo dT, and 1 part reaction buffer. Ten microliters of this reaction mixture were placed in a round bottom microtiter plate and 15 µL of virus containing supernatant were added and mixed. The plate was incubated at 37°C in a water bath with a solid support to prevent submersion of the plate and incubated for 60 minutes. After the incubation period, the reaction volume was spotted onto pieces of DE81 paper, washed 5 times for 5 minutes each in a 5% sodium phosphate buffer, 2 times for 1 minute each in distilled water, 2 times for 1 minute each in 70% ethanol, and then dried. Opti-Fluor-O (Packard) was added to each sample and incorporated radioactivity was quantified utilizing a Wallac 1450 MicroBeta Plus liquid scintillation counter. Plates were screened with tetrazolium dye staining as described above.
PBMCs were treated with dilutions of LUKOR of 1:4, 1:20, 1:100, 1:500, or 1:2500, or concentrations ofN-glycolylneuraminic acid or N-acetylneuraminic acid of 0.4, 1.2, 3.6, 11, or 33µg/ml. No carbohydrates were added to the control sample. RT activity was determined at 3, 6, 9,13, 17, and 20 days post-infection (PI) with X4 strain LAI/IIIB.

O=C(CO)N[C@H]1[C@H]([C@H](O)[C@H](O)CO)OC(O)(C(=O)O)C[C@@H]1O (some centres unmarked) [N-glycolylneuraminic acid]
CC50 (PBMCs): > 1000 µM | anti-HIV activity (HIV-1RF): did not display anti-HIV activity | anti-HIV activity (HIV-1IIIB): did not display anti-HIV activity | CC50 at 144 h (in vitro): > 1000 µM | RT Activity (X4 strain LAI/IIIB; 0.4 µg/ml, 3 days PI): 53 | RT Activity (X4 strain LAI/IIIB; 0.4 µg/ml, 6 days PI): 113 | RT Activity (X4 strain LAI/IIIB; 0.4 µg/ml, 9 days PI): 1342 | RT Activity (X4 strain LAI/IIIB; 0.4 µg/ml, 13 days PI): 1371 | RT Activity (X4 strain LAI/IIIB; 0.4 µg/ml, 17 days PI): 1509 | RT Activity (X4 strain LAI/IIIB; 0.4 µg/ml, 20 days PI): 1250 | RT Activity (X4 strain LAI/IIIB; 3.6 µg/ml, 3 days PI): 45 | RT Activity (X4 strain LAI/IIIB; 3.6 µg/ml, 6 days PI): 44 | RT Activity (X4 strain LAI/IIIB; 3.6 µg/ml, 9 days PI): 139 | RT Activity (X4 strain LAI/IIIB; 3.6 µg/ml, 13 days PI): 428 | RT Activity (X4 strain LAI/IIIB; 3.6 µg/ml, 17 days PI): 1262 | RT Activity (X4 strain LAI/IIIB; 3.6 µg/ml, 20 days PI): 616 | RT Activity (X4 strain LAI/IIIB; 11 µg/ml, 3 days PI): 40 | RT Activity (X4 strain LAI/IIIB; 11 µg/ml, 6 days PI): 75 | RT Activity (X4 strain LAI/IIIB; 11 µg/ml, 9 days PI): 956 | RT Activity (X4 strain LAI/IIIB; 11 µg/ml, 13 days PI): 2544 | RT Activity (X4 strain LAI/IIIB; 11 µg/ml, 17 days PI): 3261 | RT Activity (X4 strain LAI/IIIB; 11 µg/ml, 20 days PI): 1411 | RT Activity (X4 strain LAI/IIIB; 33 µg/ml, 3 days PI): 32 | RT Activity (X4 strain LAI/IIIB; 33 µg/ml, 6 days PI): 75 | RT Activity (X4 strain LAI/IIIB; 33 µg/ml, 9 days PI): 567 | RT Activity (X4 strain LAI/IIIB; 33 µg/ml, 13 days PI): 1103 | RT Activity (X4 strain LAI/IIIB; 33 µg/ml, 17 days PI): 2356 | RT Activity (X4 strain LAI/IIIB; 33 µg/ml, 20 days PI): 2917 | RT activity in treated cells (summary in words) (X4 strain LAI/IIIB; all dilutions/concentrations, 3-20 days PI): RT activity was decreased
